# In patent publication US20060110456A1, “Method for biocidal and/or biostatic treatment and compositions therefor” (NATIONAL UNIVERSITY OF SINGAPORE, priority 2004, published 2006):
# Entries after “also recorded” stand apart in the source; their conditions may differ. Counter-ions that a name gives are not always drawn.
# Key:
# [1] = test system: marine bacteria (ten strains); assay: Bio-adhesion assay (crystal violet microplate); format: cell-based, marine bacteria isolated from Singapore fouling communities; settings: for Effect of drugs on adhesion of bacteria: 50 μl of 125 μg ml^−1 drug + 200 μl bacteria, 2 hours
# Method: The effect of pharmaceuticals on bacterial adhesion was analyzed using a modified microplate method adapted from Shea and Williamson (1990). This method consists of staining the attached bacteria with crystal violet, releasing the stain with sodium desoxycholate, and measuring the resulting absorbance of the crystal violet. The absorbance is proportional to the degree of bacterial adhesion to the surface.
# Ten strains of bacteria (strain numbers 1, 4, 9, 14, 18, 20, 27, 28, 29 and 30) were chosen for this study. Flat bottom non-tissue culture treated polystyrene (hydrophobic, Falcon #351172) (referred to as polystyrene) and flat bottom tissue culture treated polystyrene (hydrophilic, Falcon #353072) microplates were used in the analyses. These two types of plates were chosen because they were sterile and offered two different kinds of surfaces to determine the adhesion preferences of the bacteria. Each test was done in duplicate. For the control and blank wells, 50 μl of sterile deionized water were added. For those wells that were to contain drugs, 50 μl of drugs at concentration of 125 μg ml^−1 were added. Then 200 μl of bacteria suspension in sterile seawater, whose absorbance had been adjusted to 0.6 at 600 nm using a spectrophotometer (Beckman), were added. Blanks contained 200 μl of sterile seawater.
# The bacteria in suspension were allowed to attach for 2 hours at 28° C. Unattached cells were removed by pipetting out almost all trace of liquid and rinsed three times with 300 μl of sterile seawater each time. The attached cells were stained with 200 μl of crystal violet solution (0.1% w/v) in each well for 5 min. After removing the stain by pipetting, the wells were rinsed twice with 300 μl of sterile deionized water each time. Sodium desoxycholate (200 μl) solution (2% w/v) was then added to each well to extract the crystal violet from the stained cells for 10 min. The absorbance of the extracted solution was read at 590 nm using a microplate reader (Sunrise, Tecan, Switzerland).
# The data were analyzed using T-test (Two-sample assuming unequal variances) to determine the significance of the absorbance values of each bacterial strain versus the blanks to determine whether there was adhesion, i.e. increase in absorbance. Each drug effect on adhesion was analyzed by comparing the absorbance of each bacterial strain minus the control blank versus bacteria in presence of drug minus the drug control. When the data is significant, there are bacterial cells attached to the surface in the control but in the presence of drugs, there is no attachment.
# [2] = test system: Balanus amphitrite stage II naupliar larvae; settings: barnacle nauplii, 22 to 24 hours; concentration that caused 50% mortality
# Method: Pharmaceuticals from the respective manufacturers were treated in the following way. A pill containing a known amount of active ingredient (as stated in product information) was ground in a mortar and pestle and a suspension of 2 mg ml^−1 generated in de-ionized water. This stock solution is stored at −20° C. in 4 ml amber screw cap vials. For the bioassays, 250 ul of stock solution is added to 10 ml of 1 um filtered seawater. This suspension was then sonicated for 10 minutes. Serial dilutions of this 50 μg ml^−1 seawater solution, or suspension, with seawater was done to generate the required range of concentrations.
# Stage II naupliar larvae used in tests were obtained from Balanus amphitrite adults collected from inter-tidal rock walls at Kranji mangrove, Singapore. Larvae were collected from a container of adults by attraction to a point source of light and transferred to 500 ml of fresh seawater. Next, larvae were re-concentrated with a fiber optic light and added to assays.
# Duplicate assays were conducted in 2 ml micro-centrifuge tubes (Axygen MCT-200-C) in 1.5 ml of filtered seawater for 22 to 24 hours. The assays were repeated for confirmation. There were four controls (vehicle only, 0 μg ml^−1), and 2 tubes of each for each test concentration. The assay was initiated by addition of barnacle nauplii in 50 to 100 μl of seawater.
# After 22 to 24 hours of incubation at 25-27° C., solutions containing test animals were transferred to a Bogorov tray and scored as living or dead. Moribund larvae were scored as dead. Results were confirmed by repeating the assay. […] If data were not appropriate for probit analysis, the LC50 was estimated from graphed data.
structure (smiles),measurement,setting,value
"Cc1nccn1CC1CCc2c(c3ccccc3n2C)C1=O (stereo not drawn) [ZFN, ondansetron hydrochloride]",Effect on bacterial adhesion,"[1]; polystyrene or tissue culture surface as named in the value, hydrochloride",prevented biofilm formation for almost all strains in the polystyrene surface; also recorded: increased cell adhesion in the tissue culture surface for strain 30
same,Effect of drugs on adhesion of bacteria,"[1]; strain 4 (Bacillus), hydrophobic surface (untreated polystyrene)",** (** p < 0.01)
same,Effect of drugs on adhesion of bacteria,"[1]; strain 9 (Bacillus), hydrophobic surface (untreated polystyrene)",*** (*** p < 0.005)
same,Effect of drugs on adhesion of bacteria,"[1]; strain 14 (Vibrio), hydrophobic surface (untreated polystyrene)",* (Significantly less adhesion observed: * p < 0.05)
same,Effect of drugs on adhesion of bacteria,"[1]; strain 18 (Microbacterium), hydrophobic surface (untreated polystyrene)",* (Significantly less adhesion observed: * p < 0.05)
same,Effect of drugs on adhesion of bacteria,"[1]; strain 20, hydrophobic surface (untreated polystyrene)",** (** p < 0.01)
same,Effect of drugs on adhesion of bacteria,"[1]; strain 27, hydrophobic surface (untreated polystyrene)",*** (*** p < 0.005)
same,Effect of drugs on adhesion of bacteria,"[1]; strain 28, hydrophobic surface (untreated polystyrene)",*** (*** p < 0.005)
same,Effect of drugs on adhesion of bacteria,"[1]; strain 29, hydrophobic surface (untreated polystyrene)",* (Significantly less adhesion observed: * p < 0.05)
same,Effect of drugs on adhesion of bacteria,"[1]; strain 30, hydrophilic surface (tissue culture treated polystyrene)",* (Significantly less adhesion observed: * p < 0.05)
same,Effect of drugs on adhesion of bacteria,"[1]; strain 30, hydrophobic surface (untreated polystyrene)",* (Significantly less adhesion observed: * p < 0.05)
same,LD50,[2],468.96 ng/mL
